According to paper PMC8551263, “Optineurin modulates the maturation of dendritic cells to regulate autoimmunity through JAK2-STAT3 signaling” (Nature Communications, 2021):

Biological target: T1, OPTN (Homo sapiens, UniProt Q96CV9)
T1 construct: protein for SPR
Assay: surface plasmon resonance
Assay type: binding
Conditions: rapid on-rate and off-rate kinetics; sensorgrams in Supplementary Fig. 7a, b

T1 sequence (Q96CV9 whole entry): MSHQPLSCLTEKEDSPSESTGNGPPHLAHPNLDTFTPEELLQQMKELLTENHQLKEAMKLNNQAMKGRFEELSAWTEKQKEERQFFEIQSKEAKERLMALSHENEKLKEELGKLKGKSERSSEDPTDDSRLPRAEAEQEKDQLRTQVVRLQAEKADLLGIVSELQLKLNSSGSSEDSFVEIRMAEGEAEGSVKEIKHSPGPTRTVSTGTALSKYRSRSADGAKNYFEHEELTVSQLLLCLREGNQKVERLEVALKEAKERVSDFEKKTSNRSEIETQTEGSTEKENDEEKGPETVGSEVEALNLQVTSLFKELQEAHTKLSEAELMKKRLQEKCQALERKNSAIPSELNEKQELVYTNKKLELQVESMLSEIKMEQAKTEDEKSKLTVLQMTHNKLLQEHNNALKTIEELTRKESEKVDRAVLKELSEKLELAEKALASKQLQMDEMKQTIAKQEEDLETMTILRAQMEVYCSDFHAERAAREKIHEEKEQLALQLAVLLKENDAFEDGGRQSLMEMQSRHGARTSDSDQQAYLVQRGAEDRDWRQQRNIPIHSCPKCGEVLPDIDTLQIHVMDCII

C[C@H]1O[C@@H](O[C@H]2CC[C@@]3(C)[C@@H](CC[C@]4(C)[C@@H]3C=C[C@]35OC[C@@]6(CCC(C)(C)C[C@H]63)[C@H](O)C[C@]54C)[C@]2(C)CO)[C@H](O)[C@@H](O[C@@H]2O[C@H](CO)[C@@H](O)[C@H](O)[C@H]2O)[C@H]1O [Saikosaponin D]
KD: 5.115 × e^−5 M
